# Reference: patent publication US7202239B2, “Cyclohexylphenyl carboxamides tocolytic oxytocin receptor antagonists” (Wyeth, priority 2001, dated 2007)
# Molecular target: human V2 vasopressin receptor subtype (Homo sapiens, UniProt P30518)
# Test: Vasopressin binding in CHO cell membranes expressing human vasopressin V2 subtype receptors
# Conditions: [3H]arginine vasopressin; for inhibition at 0.1 µM / V2 % inhibition at 100 nM: 100 nM; for IC50: value in parentheses
# Text: Vasopressin Binding in Chinese Hamster Ovary Cell Membranes Expressing Human Vasopressin V2 Subtype Receptors
# Chinese Hamster Ovary (CHO) cells stably transfected with the human V2 subtype receptors were obtained from M. Thibonnier, Case Western Reserve University School of Medicine, Cleveland, Ohio.
# A. Passaging and Amplification of Cells:
# CHO cells transfected with the human vasopressin V2 subtype receptors obtained from M. Thibonnier (pZeoSV vector) are allowed to grow to confluency (approx. >90%) in T-150 flasks under sterile conditions, in a cell culture medium of F-12 Nutrient Mixture (HAM) with L-glutamine (Gibco Cat. # 11765-054) containing 15 mM HEPES (Gibco Cat. # 15630-080), 1% antibiotic/antimycotic (add 5 mL 100×, Gibco Cat. # 15240-062 per 500 mL F-12), 250 μg/mL Zeocin (add 1.25 mL of 100 mg/mL Invitrogen R-250-01 per 500 mL F-12) and 10% Fetal Bovine Serum (Qualified, heat inactivated, Gibco Cat. # 16140-063). The medium is removed by aspiration and the cells washed with 10 mL of Hank's Balanced Salt solution (Gibco Cat. # 14175-095). The salt solution is removed by aspiration and the cells trypsinized with 5 mL of trypsin-EDTA (0.05% trypsin, 0.53 mM EDTA-4Na, Gibco Cat. # 25300-070) for 1 min. The trypsin is removed by aspiration and the cells dislodged by tapping. Cell Culture medium (e.g. 30 mL for 1:30 split) is immediately added and mixed well to inactivate trypsin. 1 mL of detached cells is added to new culture flasks containing fresh Cell Culture medium (e.g. into 25 mL per T-150 flask), and mixed gently. The cells are incubated at 37° C. in 5% CO2. The medium is changed at 3 to 4 day interval (or as appropriate). The cells grow to confluency (approx. >75%–95%) within 7–8 days. All steps are done under sterile conditions. B. Membrane Preparation: The cells are washed twice gently with Hank's Balanced Salt solution (e.g. use 10 mL per T-150 flask). The excess solution is removed and the cells bathed for 15–30 min. in an enzyme-free Cell Dissociation Buffer (e.g. use 8 mL Hank's Based, Gibco Cat. # 13150-016 per T-150 flask) until cells are loosened. The contents are transferred to centrifuge tubes (50 mL) kept in an ice bath. All subsequent steps are done at 4° C. The tubes are centrifuged at 300× g for 15 min (1380 rpm on SORVAL, Model RT6000D, using the rotor for 50 mL tubes). The supernatant is discarded and the cells suspended in homogeneizing buffer(10 mM Tris-HCl containing 0.25 M sucrose and 1 mM EDTA, pH 7.4) ensuring that the volume of the buffer is about ten times the volume of the cell pellet. The cells are pooled into a centrifuge tube (50 mL) and homogenized with a Polytron at setting 6 for 10 sec. The homogenate is transferred into a Potter-Elvjehm homogeneizer and homogenized with 3 strokes. The homogenate is centrifuged at 1500×g for 60 min at 4° C. (3100 rpm using SORVAL, model RT6000D, using the rotor for 50 mL tubes). The pellet is discarded. The supernatant is centrifuged at 100,000×g for 60 min. at 4° C. (Beckman L8-80M ultracentrifuge; spin at 37,500 rpm with rotor type 70 Ti for 50 mL tubes; 38,000 rpm with type 80Ti for 15 mL tubes; or 35,800 rpm with rotor type 45Ti). The supernantant is discarded and the pellet suspended in 3 to 4 mL of Tris buffer (50 mM TRIS-HCl, pH 7.4). The protein content is estimated by the Bradford or Lowry method. The volume of the membrane suspension is adjusted with the membrane buffer (50 mM Tris-HCl containing 0.1% BSA and 0.1 mM PMSF) to give 3.0 mg/mL (or as appropriate) of protein. The membranes are aliquoted and stored at −70° C. C. Radioligand Binding Assay: In wells of a 96-well format microtiter plate, is added 90, 110 or 130 μL (to make up a final volume of 200 μL) of assay buffer containing 50 mM of Tris-HCl (pH 7.4), […], 1 mg % aprotinin, 1 mg % leupeptin, 2 mg % 1,10-phenanthroline, 10 mg % trypsin inhibitor, and 0.1 mM PMSF. The inhibitors are added on the day of the experiment. […]
# Sequence of human V2 vasopressin receptor subtype (P30518 whole entry): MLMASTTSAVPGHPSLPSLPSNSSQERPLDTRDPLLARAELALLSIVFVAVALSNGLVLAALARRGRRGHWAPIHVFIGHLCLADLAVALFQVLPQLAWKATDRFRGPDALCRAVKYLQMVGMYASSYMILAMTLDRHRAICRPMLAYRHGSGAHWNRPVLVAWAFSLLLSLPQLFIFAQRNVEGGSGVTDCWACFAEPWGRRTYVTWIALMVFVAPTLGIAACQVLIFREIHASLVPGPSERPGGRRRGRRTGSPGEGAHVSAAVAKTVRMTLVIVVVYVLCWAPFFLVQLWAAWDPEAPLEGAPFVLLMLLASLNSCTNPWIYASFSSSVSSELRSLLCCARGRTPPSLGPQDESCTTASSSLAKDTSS
inhibition at 0.1 µM [%],SMILES,also measured
7,"O=C(NCc1cccnc1)c1ccc2n1Cc1ccccc1N(C(=O)c1ccc(C3CCCCC3)cc1)C2 [Example 51, 10-(4-Cyclohexyl-benzoyl)-N-(3-pyridinylmethyl)-10,11-dihydro-5H-pyrrolo [2,1-c][1,4]benzodiazepine-3-carboxamide]",
-3,"CN1CCC(N(C)C(=O)c2ccc3n2Cc2ccccc2N(C(=O)c2ccc(C4CCCCC4)cc2)C3)C1 (centres unmarked) [Example 40, 10-(4-Cyclohexyl-benzoyl)-N-methyl-N-(1-methyl-3-pyrrolidinyl)-10,11-dihydro-5H-pyrrolo[2,1-c][1,4]benzodiazepine-3-carboxamide]",
6,"CN(CCc1ccncc1)C(=O)c1ccc2n1Cc1ccccc1N(C(=O)c1ccc(C3CCCCC3)cc1)C2 [Example 55, 10-(4-Cyclohexyl-benzoyl)-N-methyl-N-[2(4-pyridinyl)ethyl]-10,11-dihydro-5H-pyrrolo[2,1-c][1,4]benzodiazepine-3-carboxamide]",
15,"O=C(NCc1ccccn1)c1ccc2n1Cc1ccccc1N(C(=O)c1ccc(C3CCCCC3)cc1)C2 [Example 50, 10-(4-Cyclohexyl-benzoyl)-N-(2-pyridinylmethyl)-10,11-dihydro-5H-pyrrolo[2,1-c][1,4]benzodiazepine-3-carboxamide]",
4,"CN(Cc1cccnc1)C(=O)c1ccc2n1Cc1ccccc1N(C(=O)c1ccc(C3CCCCC3)cc1)C2 [Example 57, 10-(4-Cyclohexyl-benzoyl)-N-methyl-N-(3-pyridinylmethyl)-10,11-dihydro-5H-pyrrolo[2,1-c][1,4]benzodiazepine-3-carboxamide]",
10,"O=C(NCCc1ccccn1)c1ccc2n1Cc1ccccc1N(C(=O)c1ccc(C3CCCCC3)cc1)C2 [Example 49, 10-(4-Cyclohexyl-benzoyl)-N-[2-(2-pyridinyl)ethyl]-10,11-dihydro-5H-pyrrolo[2,1-c][1,4]benzodiazepine-3-carboxamide]",
14,"CN(C)CCCNC(=O)c1ccc2n1Cc1ccccc1N(C(=O)c1ccc(C3CCCCC3)cc1)C2 [Example 33, 10-(4-Cyclohexyl-benzoyl)-N-[3-(dimethylamino)propyl]-10,11-dihydro-5H-pyrrolo[2,1-c][1,4]benzodiazepine-3-carboxamide]",
6,"CN(C)CCN1CCN(C(=O)c2ccc3n2Cc2ccccc2N(C(=O)c2ccc(C4CCCCC4)cc2)C3)CC1 [Example 41, [10-(4-Cyclohexyl-benzoyl)-10,11-dihydro-5H-pyrrolo[2,1-c][1,4]benzodiazepin-3-yl]{4-[2-(dimethylamino)ethyl]-1-piperazinyl}methanone]",
1,"O=C(NCCCn1ccnc1)c1ccc2n1Cc1ccccc1N(C(=O)c1ccc(C3CCCCC3)cc1)C2 [Example 36, 10-(4-Cyclohexyl-benzoyl)-N-[3-(1H-imidazol-1-yl)propyl]-10,11-dihydro-5H-pyrrolo[2,1-c][1,4]benzodiazepine-3-carboxamide]",
17,"CN(C)CCN(C)C(=O)c1ccc2n1Cc1ccccc1N(C(=O)c1ccc(C3CCCCC3)cc1)C2 [Example 34, 10-(4-Cyclohexyl-benzoyl)-N-[2-(dimethylamino)-ethyl]-N-methyl-10,11-dihydro-5H-pyrrolo[2,1-c][1,4]benzodiazepine-3-carboxamide]",
-2,"O=C(c1ccc(C2CCCCC2)cc1)N1Cc2ccc(C(=O)n3ccnc3)n2Cc2ccccc21 [Example 56, 1H-Imidazol-1-yl-[10-(4-cyclohexyl-benzoyl)-10,11-dihydro-5H-pyrrolo[2,1-c][1,4]benzodiazepin-3-yl]-methanone]",

# Second part, the compound before the results:
SMILES,inhibition at 0.1 µM [%],also measured
"CC(C)(C)c1ccc(C(=O)c2ccc3n2Cc2ccccc2N(C(=O)c2ccc(C4CCCCC4)cc2)C3)cc1 [Example 5, [4-(tert-Butyl)phenyl][10-(4-cyclohexyl-benzoyl)-10,11-dihydro-5H-pyrrolo[2,1-c][1,4]benzodiazepin-3-yl]methanone]",2,
"CN1CCN(C(=O)c2ccc3n2Cc2ccc(C(=O)O)cc2N(C(=O)c2ccc(C4CCCCC4)cc2)C3)CC1 [Example 3, 10-(4-Cyclohexyl-benzoyl)-3-[(4-methyl-1-piperazinyl)carbonyl]-10,11-dihydro-5H-pyrrolo[2,1-c][1,4]benzodiazepine-8-carboxylic acid]",-4,
C/C(=N\C(=O)c1ccc2n1Cc1ccccc1N(C(=O)c1ccc(C3CCCCC3)cc1)C2)N(C)C [Example 18],,IC50: 294 nM
"CC(=O)c1ccc2n1Cc1ccccc1N(C(=O)c1ccc(C3CCCCC3)cc1)C2 [Example 6, 1-[10-(4-Cyclohexyl-benzoyl)-10,11-dihydro-5H-pyrrolo[2,1-c][1,4]benzodiazepin-3-yl]-ethanone]",,IC50: > 1000 nM
"NNC(=O)c1ccc2n1Cc1ccccc1N(C(=O)c1ccc(C3CCCCC3)cc1)C2 [Example 8, 10-(4-Cyclohexy-benzoyl)-10,11-dihydro-5H-pyrrolo[2,1-c][1,4]benzodiazepine-3-carboxylic acid hydrazide]",,IC50: > 1000 nM
"CN(N)C(=O)c1ccc2n1Cc1ccccc1N(C(=O)c1ccc(C3CCCCC3)cc1)C2 [Example 21, 10-(4-Cyclohexyl-benzoyl)-N-methyl-10,11-dihydro-5H-pyrrolo[2,1-c][1,4]benzodiazepine-3-carboxylic acid hydrazide]",13,
"O=C(c1ccc2n1Cc1ccccc1N(C(=O)c1ccc(C3CCCCC3)cc1)C2)N1CCN(CCO)CC1 [Example 48, [10-(4-Cyclohexyl-benzoyl)-10,11-dihydro-5H-pyrrolo[2,1-c][1,4]benzodiazepin-3-y][4-(2-hydroxyethyl)-1-piperazinyl]methanone]",,V2 % inhibition at 100 nM: 14%
"O=C(c1ccc2n1Cc1ccccc1N(C(=O)c1ccc(C3CCCCC3)cc1)C2)N1CCC(N2CCCC2)CC1 [Example 25, [10-(4-Cyclohexyl-benzoyl)-10,11-dihydro-5H-pyrrolo[2,1-c][1,4]benzodiazepin-3-yl][4-(1-pyrrolidinyl)-1-piperidinyl]methanone]",,IC50: > 1000 nM
"COc1ccc(NC(=O)c2ccc3n2Cc2ccccc2N(C(=O)c2ccc(C4CCCCC4)cc2)C3)cc1 [Example 29, 10-(4-Cyclohexyl-benzoyl)-10,11-dihydro-5H-pyrrolo[2,1-c][1,4]benzodiazepine-3-carboxylic acid (4-methoxy-phenyl)-amide]",8,
"CN1CCCN(C(=O)c2ccc3n2Cc2ccccc2N(C(=O)c2ccc(C4CCCCC4)cc2)C3)CC1 [Example 30, [10-(4-Cyclohexyl-benzoyl)-10,11-dihydro-5H-pyrrolo[2,1-c][1,4]benzodiazepin-3-yl](4-methyl-[1,4]-diazepan-1-yl)-methanone]",15,
"O=C(O)c1ccc2n1Cc1ccccc1N(C(=O)c1ccc(C3CCCCC3)cc1)C2 [Example 22, 10-(4-Cyclohexyl-benzoyl)-10,11-dihydro-5H-pyrrolo[2,1 c][1,4]benzodiazepine-3-carboxylic acid]",,V2 % inhibition at 100 nM: 19%
"NC(=O)c1ccc2n1Cc1ccccc1N(C(=O)c1ccc(C3CCCCC3)cc1)C2 [Example 16, 10-(4-Cyclohexyl-benzoyl)-10,11-dihydro-5H-pyrrolo[2,1-c][1,4]benzodiazepin-3-carboxamide]",,IC50: > 1000 nM
